# Target: T1, 15-lipoxygenase (Oryctolagus cuniculus, UniProt P12530)
# T1 construct: Animals were then euthanized and nasal mucosa was collected; tissue Covance; host or cells: nasal mucosa of NZW rabbits
# T1 sequence (P12530 1-663): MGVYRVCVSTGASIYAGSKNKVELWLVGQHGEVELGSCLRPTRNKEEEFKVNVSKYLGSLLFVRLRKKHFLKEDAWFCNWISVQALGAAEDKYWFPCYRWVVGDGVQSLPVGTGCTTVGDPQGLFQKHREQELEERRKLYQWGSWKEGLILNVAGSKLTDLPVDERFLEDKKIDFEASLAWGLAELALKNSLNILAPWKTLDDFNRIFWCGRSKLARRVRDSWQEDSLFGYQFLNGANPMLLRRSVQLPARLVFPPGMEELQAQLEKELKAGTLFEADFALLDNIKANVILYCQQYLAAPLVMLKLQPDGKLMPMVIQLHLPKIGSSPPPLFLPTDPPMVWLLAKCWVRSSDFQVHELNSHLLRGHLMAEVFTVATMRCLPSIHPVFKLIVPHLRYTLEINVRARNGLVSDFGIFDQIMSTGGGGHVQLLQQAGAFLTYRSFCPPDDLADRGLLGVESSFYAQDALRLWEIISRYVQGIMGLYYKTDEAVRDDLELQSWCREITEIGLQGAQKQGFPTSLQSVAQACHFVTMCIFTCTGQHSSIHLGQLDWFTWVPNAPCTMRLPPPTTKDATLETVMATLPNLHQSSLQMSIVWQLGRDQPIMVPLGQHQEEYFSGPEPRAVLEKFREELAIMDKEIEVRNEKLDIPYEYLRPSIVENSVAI
# Assay: 15-HETE levels in rabbit nasal mucosa after nasal administration of compound 5 (IL4/IL13 inflammation model)
# Format: in vivo
# Conditions: rostral and caudal regions
# Protocol: Six (6) female NZW rabbits were employed in this study. Rabbits were obtained from Covance (Denver Pa.). Rabbits were between approximately 10 and 12 months of age at the time of study start. At time point 0, all animals received 50 μL of solution containing rabbit IL4 (RND Systems/Biotechne) and human IL13 (PreproTech) at a concentration of 0.25 mg/mL each in 0.5×PBS containing 12.5 mg/mL BSA per nostril. This was administered intranasally via a venous catheter attached to a micropipette. The animal was positioned in a supine manner and the venous catheter inserted into the nostril. The volume was introduced into the nasal cavity and the same procedure was repeated with the other nostril.
# At the 2, 4, and 6 hour time points, animals in Group 1 (n=3) received 0.2 mL of vehicle (0.9% saline) per nostril and the animals in Group 2 (n=3) received 0.2 mL of compound 5 (10 mM) in vehicle per nostril. […]
# Nasal lavage and serum samples were analyzed for the levels of compound 3 and compound 5. […] Compound 3 was quantified using LC-MS/MS (QTrap5500, Applied Biosystems). […] Compound 5 was quantified using LC-MS/MS (QTrap5500, Applied Biosystems). […]
smiles,measurement,setting,value
"O=C(Nc1ccc(F)cc1Cl)c1nn(COP(=O)(O)O)c(Cl)c1Cl [compound 5, (4,5-dichloro-3-((2-chloro-4-fluorophenyl)carbamoyl)-1H-pyrazol-1-yl)methyl dihydrogen phosphate]",mean 15-HETE levels in nasal mucosa versus vehicle (FIG. 9),"rabbits, IL4/IL13 intranasal, compound 5 10 mM 0.2 mL per nostril at 2, 4, 6 hours",lower
same,mean esterified 15-HETE levels in nasal mucosa versus vehicle (FIG. 10),total after NaOH hydrolysis minus free 15-HETE,lower

# Reference: patent US11116778B2, “Prodrugs of ALOX-15 inhibitors and methods of using the same” (EMPIRICO INC., priority 2019, dated 2021)
